From the NIST ThermoML archive (doi:10.1021/je030127e)

Experiment: xn = mol fraction of the nth substance listed
Conditions: 101.3 kPa, Liquid; for viscosity: Capillary tube (Ostwald / Ubbelohde) method

CCCCN [1-butanamine] + COCCO
Conditions	speed of sound, 298.15 K [m/s]	viscosity, 293.15 K [mPa·s]	viscosity, 298.15 K [mPa·s]	viscosity, 303.15 K [mPa·s]
x2 = 0	1251.6	0.525	0.496	0.467
x2 = 0.0501	1257	0.566	0.536	0.504
x2 = 0.0999	1262.3	0.613	0.578	0.544
x2 = 0.1508	1267.7	0.669	0.625	0.588
x2 = 0.2001	1273.1	0.731	0.68	0.636
x2 = 0.2509	1278.4	0.801	0.743	0.691
x2 = 0.3	1283.6	0.879	0.81	0.75
x2 = 0.3498	1288.8	0.964	0.886	0.815
x2 = 0.4001	1294	1.053	0.966	0.885
x2 = 0.4511	1299.1	1.146	1.049	0.957
x2 = 0.5001	1304	1.238	1.133	1.031
x2 = 0.5496	1308.8	1.327	1.214	1.103
x2 = 0.5997	1313.5	1.412	1.29	1.17
x2 = 0.6503	1318.1	1.488	1.358	1.232
x2 = 0.7	1322.4	1.552	1.415	1.286
x2 = 0.7492	1326.6	1.604	1.461	1.327
x2 = 0.7999	1330.7	1.643	1.493	1.359
x2 = 0.8491	1334.5	1.671	1.516	1.379
x2 = 0.8993	1338	1.686	1.525	1.389
x2 = 0.95	1341.4	1.696	1.533	1.395
